Test systems include K-562 leukemia; EKVX NSCLC; RPMI-8226 leukemia; MDA-MB-231 breast; SK-OV-3 ovarian; SNB-19 CNS; OVCAR-5 ovarian; MDA-MB-435; LOX IMVI melanoma; UACC-257 melanoma.
What all share (assay): NCI anticancer screen, dose series, 48 h

Where “and” joins values, the source holds several entries; their conditions need not be identical. Equal entries are not always repeated.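 The compound was tested at five concentrations on cells cultured in 96-well plates, with a 48-hour exposure period. The concentration for 50% growth inhibition is given as GI50. TGI: total growth inhibition.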

Regarding `O=C(OCc1ccccc1)N1c2cc([N+](=O)[O-])ccc2C(=O)N2CCC[C@H]2C1O` (stereo partly drawn), the TGI in the experiment on K-562 leukemia, in the experiment on EKVX NSCLC, in the experiment on RPMI-8226 leukemia, with MDA-MB-231 breast, in the experiment with SK-OV-3 ovarian and with SNB-19 CNS was above 100 µM in each case. For the same compound, the TGI in the experiment on OVCAR-5 ovarian, in the experiment with MDA-MB-435, with LOX IMVI melanoma and in the experiment with UACC-257 melanoma was above 100 µM throughout.
With `CC(=O)NC1=CC(=O)c2cc(C)cc(O)c2C1=O`, the TGI in the experiment on K-562 leukemia is 14.7 µM; in the experiment on EKVX NSCLC, 31.7 µM; with RPMI-8226 leukemia, 12.2 µM; in the experiment on MDA-MB-231 breast, 24.7 µM; with SK-OV-3 ovarian it was above 83.5 µM; in the experiment on SNB-19 CNS it was above 62.7 µM. Also, the TGI in the experiment on OVCAR-5 ovarian was 26.1 µM; in the experiment on MDA-MB-435, 1.96 µM; in the experiment on LOX IMVI melanoma it was 7.74 µM; in the experiment with UACC-257 melanoma it was 4.79 µM.
For `COc1cc(C2S/C(=C/c3ccccc3)C(=O)N2c2cccc([N+](=O)[O-])c2)cc(OC)c1OC` (stereo not drawn), the TGI in the experiment on K-562 leukemia, with EKVX NSCLC, with MDA-MB-231 breast, in the experiment with SK-OV-3 ovarian, with SNB-19 CNS and with OVCAR-5 ovarian was above 100 µM throughout. In addition, the results for the TGI with MDA-MB-435, in the experiment with LOX IMVI melanoma and in the experiment with UACC-257 melanoma were 41.2 µM, above 100 µM and above 100 µM, respectively.
Consider `CCOc1cc(C2SCC(=O)N2c2nc3cc4sc(N5C(=O)CSC5c5ccc(O)c(OCC)c5)nc4cc3s2)ccc1O` (stereo not drawn), for which the TGI in the experiment with K-562 leukemia, with EKVX NSCLC, in the experiment with RPMI-8226 leukemia, in the experiment on MDA-MB-231 breast, in the experiment with SK-OV-3 ovarian and in the experiment on SNB-19 CNS was above 100 µM in each case. Besides, the TGI was above 100 µM in the experiment with OVCAR-5 ovarian, above 100 µM in the experiment on MDA-MB-435, above 100 µM in the experiment on LOX IMVI melanoma and above 58.5 µM with UACC-257 melanoma.
Take `CCOC(=O)C(=Cn1c(=S)[nH]c2ccc([N+](=O)[O-])cc21)C(=O)OCC`: the TGI in the experiment with K-562 leukemia, in the experiment on EKVX NSCLC, in the experiment with RPMI-8226 leukemia, in the experiment with MDA-MB-231 breast, with SK-OV-3 ovarian and in the experiment on SNB-19 CNS was above 100 µM each time. The TGI with OVCAR-5 ovarian, with MDA-MB-435, with LOX IMVI melanoma and in the experiment with UACC-257 melanoma was above 100 µM each time.
As to `COc1cc(-c2nc3nc(N4CCN(C)CC4)ccc3[nH]2)c(OC)c2[nH]c(COC(C)=O)nc12`, the TGI is above 100 µM with K-562 leukemia; above 100 µM in the experiment with EKVX NSCLC; 63.6 µM in the experiment on MDA-MB-231 breast; 82.1 µM in the experiment with SK-OV-3 ovarian; above 100 µM in the experiment on SNB-19 CNS; above 100 µM with OVCAR-5 ovarian. For the same compound, the values for the TGI in the experiment with MDA-MB-435, with LOX IMVI melanoma and with UACC-257 melanoma were above 100 µM, 73.6 µM and 61.4 µM, respectively.
Turning to `O=C1C(N=Nc2ccc(-c3nc4ccccc4[nH]3)cc2)NC(=S)N1c1ccccc1` (stereo not drawn), the TGI was 35.8 µM in the experiment with K-562 leukemia; above 100 µM in the experiment with EKVX NSCLC; 60.2 µM in the experiment with RPMI-8226 leukemia; above 100 µM in the experiment with MDA-MB-231 breast; above 100 µM in the experiment on SK-OV-3 ovarian; above 100 µM in the experiment on SNB-19 CNS. Also, the TGI was above 100 µM with OVCAR-5 ovarian, above 100 µM with MDA-MB-435, 39.4 µM in the experiment on LOX IMVI melanoma and above 100 µM in the experiment with UACC-257 melanoma.
As for `CCC(C)C1(O)OC2CC3(C)OC(=CC3=O)/C(C)=C\C3OC(=O)C1(C)C32` (stereo not drawn), the TGI with K-562 leukemia was above 100 µM; with EKVX NSCLC, 32.2 µM; in the experiment on RPMI-8226 leukemia, above 100 µM; in the experiment with MDA-MB-231 breast, 41.2 µM; in the experiment with SK-OV-3 ovarian it was above 100 µM; in the experiment with SNB-19 CNS it was 77.5 µM. Besides, the TGI with OVCAR-5 ovarian is above 100 µM; in the experiment on MDA-MB-435, above 100 µM; with LOX IMVI melanoma, 49.4 µM; in the experiment on UACC-257 melanoma, 45.7 µM.
As for `Nc1ccc(-n2c(=O)oc3ccc(Cl)cc3c2=O)c(Cl)c1`, the GI50 in the experiment on K-562 leukemia was 0.108 µM; in the experiment with EKVX NSCLC, 0.213 µM; with RPMI-8226 leukemia, 0.0558 µM; with MDA-MB-231 breast, 0.111 µM; with SK-OV-3 ovarian it was 0.0934 µM; in the experiment on SNB-19 CNS it was 0.122 µM. Also, the GI50 in the experiment on OVCAR-5 ovarian was 0.467 µM; with MDA-MB-435 it was 0.113 µM; with LOX IMVI melanoma, 0.128 µM; in the experiment with UACC-257 melanoma, 0.0741 µM. For the same compound, the TGI in the experiment with K-562 leukemia was above 100 µM; in the experiment with EKVX NSCLC it was above 56.3 µM; in the experiment on RPMI-8226 leukemia, 0.256 µM; with MDA-MB-231 breast it was 1.68 µM; in the experiment with SK-OV-3 ovarian, 1.6 µM; with SNB-19 CNS, above 100 µM. Moreover, the TGI in the experiment with OVCAR-5 ovarian is above 100 µM; in the experiment on MDA-MB-435, 0.883 µM; in the experiment on LOX IMVI melanoma it was 0.946 µM; in the experiment on UACC-257 melanoma, 0.433 µM.
On to `O=c1[nH]c2ccccc2c2oc(-c3ccccc3)nc12`, for which the TGI in the experiment on K-562 leukemia is above 100 µM; in the experiment on EKVX NSCLC, above 100 µM; with RPMI-8226 leukemia, 70 µM; in the experiment with MDA-MB-231 breast, 38.1 µM; with SK-OV-3 ovarian it was above 100 µM; with SNB-19 CNS it was 80.8 µM. Moreover, the TGI in the experiment on OVCAR-5 ovarian was above 100 µM; in the experiment with MDA-MB-435, 38 µM; in the experiment with LOX IMVI melanoma it was 50.6 µM; with UACC-257 melanoma, above 100 µM.
`COc1ccc(C2=CN3CCC[C@H]3C=C2c2cc(O)c(OC)c(OC)c2)cc1OC`: the TGI in the experiment with K-562 leukemia is 0.244 µM and 0.173 µM; in the experiment on EKVX NSCLC, 0.228 µM and 1.82 µM; in the experiment with RPMI-8226 leukemia, 0.0806 µM and 0.202 µM; with MDA-MB-231 breast it was 0.15 µM; in the experiment on SK-OV-3 ovarian, 0.221 µM; in the experiment with OVCAR-5 ovarian, 0.127 µM. In addition, the TGI with MDA-MB-435 is 0.0165 µM; with LOX IMVI melanoma, 0.00717 µM; with UACC-257 melanoma it was 0.0899 µM.
As for `CN(C)CC(NC(NCS)C(=O)NCCNc1ccc(NCCNC(=O)C(NCS)NC(CN(C)C)OCCl)c2c1C(=O)c1c(O)ccc(O)c1C2=O)OCCl` (stereo not drawn), the GI50 in the experiment with EKVX NSCLC is 0.516 µM; with MDA-MB-231 breast, 1.05 µM; with OVCAR-5 ovarian, 0.713 µM. The TGI in the experiment with EKVX NSCLC is 1.26 µM and 2.51 µM; with RPMI-8226 leukemia, 0.03 µM; in the experiment with MDA-MB-231 breast it was 0.305 µM and 2.68 µM; in the experiment with SK-OV-3 ovarian, 4.11 µM; with SNB-19 CNS, 1.96 µM; in the experiment on MDA-MB-435, 1.45 µM. The figures for the TGI with LOX IMVI melanoma and with UACC-257 melanoma were 1.85 µM and 3.6 µM, respectively.

These data come from PubChem BioAssay (NCI).
